# Test results from ChEMBL document CHEMBL4610102, “Betulinic Acid Inhibits RANKL-Induced Osteoclastogenesis via Attenuating Akt, NF-κB, and PLCγ2-Ca2+ Signaling and Prevents Inflammatory Bone Loss” (J Nat Prod, 2020).
# Active and inactive are the calls of the source. The calls are words filed in the database; no cut-off is given here.
# Columns and labels:
# [1] = target: RAC-alpha serine/threonine-protein kinase (Mus musculus) (UniProt P31750); test: Inhibition of AKT phosphorylation in RANKL-induced ICR mouse bone marrow macrophages at 1 uM preincubated for 1 hr followed by RANKL-stimulation and measured after 5 to 30 mins by Western blot analysis
# BMDM [2] = test: Anti-osteoporosis activity in ICR mouse bone marrow macrophages assessed as inhibition of RANKL-induced c-Fos protein expression at 0.1 to 1 uM after 24 hrs by Western blot analysis; format: functional, cell-based
# BMDM [3] = test: Anti-osteoporosis activity in ICR mouse bone marrow macrophages assessed as inhibition of RANKL-induced NFATc1 protein expression at 0.1 to 1 uM after 24 hrs by Western blot analysis; format: functional, cell-based
# BMDM [4] = test: Inhibition of RANKL-induced osteoclastogenesis in ICR mouse bone marrow macrophages assessed as reduction in TRAP-positive multinucleated osteoclasts at 0.1 to 1 uM after 3 days by TRAP staining based assay; format: functional, cell-based
# BMDM [5] = test: Inhibition of RANKL-induced osteoclastogenesis in ICR mouse bone marrow macrophages assessed as reduction in TRAP-positive multinucleated osteoclasts after 4 days by TRAP staining based assay; format: functional, cell-based
# BMDM [6] = test: Cytotoxicity against ICR mouse bone marrow macrophages assessed as reduction in cell viability up to 10 uM after 3 days by XTT assay; format: cell-based; details: 72 h
# [7] = target: T1, 1-phosphatidylinositol 4,5-bisphosphate phosphodiesterase gamma-2 (Mus musculus) (UniProt Q8CIH5); test: Inhibition of PLCgamma2 in ICR mouse bone marrow macrophages assessed as reduction in calcium influx at 10 uM after 3 days by Fluo-3/AM staining based confocal microscopic analysis
# T1 sequence (whole entry): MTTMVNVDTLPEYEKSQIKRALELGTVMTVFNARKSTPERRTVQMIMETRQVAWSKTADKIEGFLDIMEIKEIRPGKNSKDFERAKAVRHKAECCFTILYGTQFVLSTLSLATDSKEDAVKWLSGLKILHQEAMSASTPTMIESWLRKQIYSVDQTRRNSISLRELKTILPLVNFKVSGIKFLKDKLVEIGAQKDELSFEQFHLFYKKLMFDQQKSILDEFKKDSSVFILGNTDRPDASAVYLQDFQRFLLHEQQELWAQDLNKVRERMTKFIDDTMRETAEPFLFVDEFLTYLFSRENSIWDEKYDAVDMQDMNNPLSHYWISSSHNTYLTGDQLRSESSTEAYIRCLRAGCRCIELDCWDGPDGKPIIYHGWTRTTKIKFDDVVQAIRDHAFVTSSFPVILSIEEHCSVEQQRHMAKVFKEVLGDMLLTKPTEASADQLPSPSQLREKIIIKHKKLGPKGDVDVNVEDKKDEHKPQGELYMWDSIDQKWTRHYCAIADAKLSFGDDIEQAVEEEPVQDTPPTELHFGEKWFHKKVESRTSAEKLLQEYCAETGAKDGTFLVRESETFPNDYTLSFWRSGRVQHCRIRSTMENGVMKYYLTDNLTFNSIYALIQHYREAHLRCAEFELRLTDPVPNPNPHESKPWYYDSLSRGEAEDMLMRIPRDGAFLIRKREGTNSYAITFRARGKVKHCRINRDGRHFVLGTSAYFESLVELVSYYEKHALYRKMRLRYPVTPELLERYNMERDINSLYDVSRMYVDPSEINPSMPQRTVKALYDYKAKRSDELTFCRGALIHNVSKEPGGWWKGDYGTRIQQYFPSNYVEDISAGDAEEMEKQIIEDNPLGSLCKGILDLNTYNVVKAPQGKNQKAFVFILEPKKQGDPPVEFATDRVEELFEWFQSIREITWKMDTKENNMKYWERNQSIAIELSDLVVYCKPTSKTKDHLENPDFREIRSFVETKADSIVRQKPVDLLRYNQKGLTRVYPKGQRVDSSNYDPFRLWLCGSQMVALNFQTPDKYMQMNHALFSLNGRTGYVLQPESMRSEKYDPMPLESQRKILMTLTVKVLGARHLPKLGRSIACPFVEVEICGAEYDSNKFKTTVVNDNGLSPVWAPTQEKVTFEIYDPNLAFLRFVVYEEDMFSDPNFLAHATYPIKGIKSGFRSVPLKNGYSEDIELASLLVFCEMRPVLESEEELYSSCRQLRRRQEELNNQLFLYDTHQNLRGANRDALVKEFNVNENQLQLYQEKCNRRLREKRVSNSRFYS
# [8] = target: T1, 1-phosphatidylinositol 4,5-bisphosphate phosphodiesterase gamma-2 (Mus musculus); test: Inhibition of PLCgamma2 phosphorylation in RANKL-induced ICR mouse bone marrow macrophages at 10 uM preincubated for 1 hr followed by RANKL-stimulation and measured after 5 to 30 mins by Western blot analysis
# BMDM [9] = test: Anti-osteoporosis activity in ICR mouse bone marrow macrophages assessed as inhibition of RANKL-induced c-Fos mRNA expression at 10 uM after 12 to 48 hrs by RT-PCR analysis; format: functional, cell-based
# BMDM [10] = test: Anti-osteoporosis activity in ICR mouse bone marrow macrophages assessed as inhibition of RANKL-induced NFATc1 mRNA expression at 10 uM after 12 to 48 hrs by RT-PCR analysis; format: functional, cell-based
# BMDM [11] = test: Anti-osteoporosis activity in ICR mouse bone marrow macrophages assessed as inhibition of RANKL-induced c-Fos protein expression at 10 uM after 12 to 48 hrs by Western blot analysis; format: functional, cell-based
# BMDM [12] = test: Anti-osteoporosis activity in ICR mouse bone marrow macrophages assessed as inhibition of RANKL-induced NFATc1 protein expression at 10 uM after 12 to 48 hrs by Western blot analysis; format: functional, cell-based
# BMDM [13] = test: Anti-osteoporosis activity in ICR mouse bone marrow macrophages assessed as inhibition of RANKL-induced OSCAR mRNA expression at 10 uM after 12 to 48 hrs by RT-PCR analysis; format: functional
# BMDM [14] = test: Anti-osteoporosis activity in ICR mouse bone marrow macrophages assessed as inhibition of RANKL-induced OC-STAMP mRNA expression at 10 uM after 12 to 48 hrs by RT-PCR analysis; format: functional
# BMDM [15] = test: Anti-osteoporosis activity in ICR mouse bone marrow macrophages assessed as inhibition of RANKL-induced DC-STAMP mRNA expression at 10 uM after 12 to 48 hrs by RT-PCR analysis; format: functional
# BMDM [16] = test: Anti-osteoporosis activity in ICR mouse bone marrow macrophages assessed as inhibition of RANKL-induced ATP6v0d2 mRNA expression at 10 uM after 12 to 48 hrs by RT-PCR analysis; format: functional
# BMDM [17] = test: Anti-osteoporosis activity in ICR mouse bone marrow macrophages assessed as inhibition of RANKL-induced MMP9 mRNA expression at 10 uM after 12 to 48 hrs by RT-PCR analysis; format: functional
# BMDM [18] = test: Anti-osteoporosis activity in ICR mouse bone marrow macrophages assessed as inhibition of RANKL-induced beta3-integrin mRNA expression at 10 uM after 12 to 48 hrs by RT-PCR analysis; format: functional
# [19] = target: RAC-alpha serine/threonine-protein kinase (Mus musculus) (UniProt P31750); test: Inhibition of AKT phosphorylation in RANKL-induced ICR mouse bone marrow macrophages at 10 uM preincubated for 1 hr followed by RANKL-stimulation and measured after 5 to 30 mins by Western blot analysis
# [20] = target: I-kappa-B kinase (Mus musculus) (UniProt Q60680+O88351+O88522); test: Inhibition of IKappaB phosphorylation in RANKL-induced ICR mouse bone marrow macrophages at 10 uM preincubated for 1 hr followed by RANKL-stimulation and measured after 5 to 30 mins by Western blot analysis; format: protein-complex assay
# BMDM [21] = test: Inhibition of RANKL-induced osteoclastogenesis in ICR mouse bone marrow harboring constitutively active AKT macrophages assessed as reduction in TRAP-positive multinucleated osteoclasts at 10 uM after 3 days by TRAP staining based assay; format: functional, cell-based
# BMDM [22] = test: Inhibition of RANKL-induced osteoclastogenesis in ICR mouse bone marrow macrophages harboring constitutively active IKKbeta assessed as reduction in TRAP-positive multinucleated osteoclasts at 10 uM after 3 days by TRAP staining based assay; format: functional, cell-based
# HEK-293T = test: Trans-suppression of NFkappaB (unknown origin) in HEK293T cells cotransfected with betagalactosidase at 10 uM incubated for 12 hrs followed by RANKL-stimulation by luciferase reporter gene assay; format: cell-based; details: Homo sapiens
# Osteoclast [23] = test: Inhibition of bone-resorbing in ICR mouse osteoclasts assessed as reduction in resorption at 10 uM after 24 hrs by pit formation assay; format: functional, cell-based
# Osteoclast [24] = test: Inhibition of bone-resorbing in ICR mouse osteoclasts assessed as downregulation of Ctsk-mRNA expression at 10 uM after 12 to 48 hrs by RT-PCR analysis; format: functional, cell-based
# Mus musculus [25] = test: Anti-resorptive activity in ICR mouse model of LPS-Induced bone loss assessed as reduction in bone loss in proximal femurs at 10 mg/kg, po for 8 days by micro-CT analysis; format: functional, organism-based
# Mus musculus [26] = test: Anti-resorptive activity in ICR mouse model of LPS-Induced bone loss assessed as reduction in trabecular separation in proximal femurs at 10 mg/kg, po for 8 days by micro-CT analysis; format: functional, organism-based
# Mus musculus [27] = test: Anti-resorptive activity in ICR mouse model of LPS-Induced bone loss assessed as increase in trabecular number in proximal femurs at 10 mg/kg, po for 8 days by micro-CT analysis; format: functional, organism-based
# Mus musculus [28] = test: Anti-resorptive activity in ICR mouse model of LPS-Induced bone loss assessed as increase in bone volume per tissue volume in proximal femurs at 10 mg/kg, po for 8 days by micro-CT analysis; format: functional, organism-based
# Mus musculus [29] = test: Anti-resorptive activity in ICR mouse model of LPS-Induced bone loss assessed as increase in trabecular bone in femurs at 10 mg/kg, po for 8 days by H and E staining based light microscopic analysis; format: functional, organism-based
# Mus musculus [30] = test: Anti-resorptive activity in ICR mouse model of LPS-Induced bone loss assessed as inhibition of TRAP-positive multinucleated osteoclasts formation in femurs at 10 mg/kg, po for 8 days by TRAP staining based light microscopic analysis; format: functional, organism-based
# Sequence of RAC-alpha serine/threonine-protein kinase (Mus musculus) (P31750 whole entry): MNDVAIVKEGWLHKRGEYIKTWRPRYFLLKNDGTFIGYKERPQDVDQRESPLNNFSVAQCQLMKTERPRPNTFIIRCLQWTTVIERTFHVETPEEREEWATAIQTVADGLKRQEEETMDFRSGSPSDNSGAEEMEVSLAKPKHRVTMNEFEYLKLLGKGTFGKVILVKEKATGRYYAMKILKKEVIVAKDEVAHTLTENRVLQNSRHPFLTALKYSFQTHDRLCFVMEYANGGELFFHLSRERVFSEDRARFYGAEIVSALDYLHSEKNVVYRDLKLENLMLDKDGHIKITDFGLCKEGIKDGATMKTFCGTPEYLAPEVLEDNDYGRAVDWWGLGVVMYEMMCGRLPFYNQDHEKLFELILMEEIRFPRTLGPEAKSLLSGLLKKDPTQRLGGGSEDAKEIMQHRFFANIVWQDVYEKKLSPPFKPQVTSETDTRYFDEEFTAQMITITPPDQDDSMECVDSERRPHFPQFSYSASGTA
compound,measurement,setting,value
NC1(c2ccc(-c3nc4ccn5c(=O)[nH]nc5c4cc3-c3ccccc3)cc2)CCC1,inhibition,[1],Active
same,inhibition,BMDM [2],Active
same,inhibition,BMDM [3],Active
same,inhibition,BMDM [4],Active
C=C(C)[C@@H]1CC[C@]2(C(=O)O)CC[C@]3(C)[C@H](CC[C@@H]4[C@@]5(C)CC[C@H](O)C(C)(C)[C@@H]5CC[C@]43C)[C@@H]12 [BETULINIC ACID],inhibition,BMDM [5],Dose-dependent effect
same,Activity,BMDM [6],Non-Toxic
same,inhibition,[7],Active
same,inhibition,[8],Active
same,inhibition,BMDM [9],Active
same,inhibition,BMDM [10],Active
same,inhibition,BMDM [11],Active
same,inhibition,BMDM [12],Active
same,fold change (FC),BMDM [13],2 - 4
same,fold change (FC),BMDM [14],2 - 4
same,fold change (FC),BMDM [15],2 - 4
same,fold change (FC),BMDM [16],2 - 4
same,fold change (FC),BMDM [17],2 - 4
same,fold change (FC),BMDM [18],2 - 4
same,inhibition,[19],Active
same,inhibition,[20],Active
same,inhibition,BMDM [21],inactive
same,inhibition,BMDM [22],Active
same,Activity,HEK-293T,Active
same,inhibition,Osteoclast [23],Active
same,inhibition,Osteoclast [24],Active
same,Activity,Mus musculus [25],Active
same,Activity,Mus musculus [26],Active
same,Activity,Mus musculus [27],Active
same,Activity,Mus musculus [28],Active
same,Activity,Mus musculus [29],Active
same,inhibition,Mus musculus [30],Active
